Results reported in patent publication EP1214938A2, “Modulation of cellular response to external stimuli” (priority 1991, dated 1992).

Legend:
[1] = system: NIH3T3 cell line (D5C3); experiment: Blocking transformed phenotype of D5C3 cells (temperature-sensitive v-abl); type: cell-based, murine; design: key to Phenotype: 1+ represents a typical fibroblastic appearance of nontransformed NIH3T3 cells; visually graded on a scale of + (1+) to +++++ (5+); visually graded on a scale of + (1+) to +++++ (5+); +++++: 5+ represents a fully transformed phenotype; key to Growth: the nontransformed cells were scored as 1+ (for slower growth); graded from + (1+) to +++++ (5+); graded from + (1+) to +++++ (5+); +++++: the transformed cells were scored as 5+ (for rapid growth); details: for Growth / Phenotype: ciprofloxacin 50 µg/ml; for Phenotype: visually graded
Description: In an additional assay method of the invention, the effect of coadministering a xanthine compound with a candidate inhibitor for P450 can be assessed using transformed NIH3T3-[…] cells and comparing the effect on transformation phenotype among control, incubation with the xanthine derivative alone, and coincubation of the xanthine derivative with the P450 enzyme inhibitor. An NIH3T3 cell line ([…]) provides target cells which were transformed by an activated oncogene. The cells were transformed with a temperature-sensitive v-abl mutant gene. This mutant gene encodes a temperature-sensitive v-abl protein that produces a non-oncogenic product at a non-permissive temperature due to a lack of tyrosine phosphorylation. The cells were incubated at the permissive temperature (33°C) for 5 days after passage with and without pentoxifylline (1 mM).

[2] = system: T cell proliferation; details: Singer et al.; cited from earlier work
[3] = system: Steel factor transcripts in marrow stromal cell lines; experiment: Northern blot of Steel factor transcripts; type: cell-based; details: three-hour incubation; passaged (native) or cloned (CDCL) lines
[4] = system: IL-2 receptor transcripts in CD3 positive lymphocytes; experiment: Northern blot, mixed lymphocyte reaction; type: cell-based; details: Figure 19C
[5] = system: HLA-DR, the transferrin receptor (CD71), the IL-2 receptor (CD25), and CD69; details: MLR-stimulated lymphocytes; Singer et al.; cited from earlier work
[6] = system: TNF transcripts in CD3 positive lymphocytes; experiment: Northern blot, mixed lymphocyte reaction; type: cell-based; details: Figure 19A
[7] = system: NIH3T3 murine fibroblast cells transformed with a mutated K-ras; experiment: Subcutaneous tumors of K-ras-transformed NIH3T3 cells in nude mice; type: in vivo; details: after eight days, 10^6 cells subcutaneously
Description: Nude mice were injected subcutaneously with 10^6 cells and were treated either once or twice daily with 100 mg/kg pentoxifylline intraperitoneally. Control animals treated with only saline injections developed tumors that weighed 2.5 ±0.2 g after eight days. Animals treated once daily with pentoxifylline had tumors that weighed only 0.45 ±0.2 g while animals treated twice daily had tumors that weighed 0.2 ±0.1 g.

[8] = system: TNFα transcripts in U937 cells; experiment: Northern blot of TNF transcripts after LPS induction; type: cell-based; details: 1 mM PTX; LPS for three hours
[9] = system: phosphatidic acid phosphohydrolase (PAPH); experiment: Invention assay (lipid HPLC after IL-1), indirect enzyme inhibition; type: cell-based, Human
Description: (§1) As shown hereinbelow, a simple assay involving incubation of target cells with primary stimulus in the presence or absence of the xanthine derivative followed by extraction and analysis of lipid content is diagnostic of the levels of various members of the foregoing pathway as characterized by their fatty acyl content. This assay indirectly measures the effect of the xanthine derivative on the relevant enzymes lysophosphatidic acid acyltransferase (LPAAT) and phosphatidic acid phosphoryl hydrolase (PAPH). In general, inhibition of these enzymes is effected by the xanthine derivative, thus resulting in lowering of the levels of the relevant species of the particular acylated subspecies of PA and DAG intermediates.
(§2) This example also illustrates the method of the invention.
(§3) Human glomerular mesangial cells were incubated with IL-1 for various time periods of 5-60 seconds and the cells were fixed in ice-cold methanol, and the lipids extracted using chloroform:methanol 2:1 (v/v). It is very important that the fixing/extraction process be conducted quickly so that the decomposition of unstable intermediates is halted.
(§4) The extracts were subjected to HPLC on a Rainin mu-Porasil column with a 3:4 hexane:propanol organic carrier and a 1-10% water gradient during the first 10 minutes of separation. The relative concentration of each lipid species is determined using absorption at 206 nm (A206), which follows unsaturated acyl content of lipid species. […] The absolute mass of each lipid species is determined by isolation of the lipid using a fraction collector, repurification on the HPLC column. Determination of phospholipid phosphorus is as nmoles/mg cellular protein. Protein concentration is determined using the Bradford technique.
(§5) Thus, the lyso PA that accumulates contains high levels of unsaturated fatty acids. Pentoxifylline in a dose range greater than 500 µM results in inhibition both of phosphatidate phosphohydrolase and of lyso PA acyl transferase.

[10] = system: lyso-PA acyl transferase (LPAAT); experiment: as above; type: cell-based, Human; details: IL-1-stimulated HMC
Description: as §1, §2, §3, §4, §5

[11] = system: IL-2 transcripts in CD3 positive lymphocytes; experiment: Northern blot, mixed lymphocyte reaction; type: cell-based; details: Figure 19B
[12] = system: NIH3T3 murine fibroblast cells transformed with a mutated K-ras; experiment: Growth and anchorage-independent growth in soft agar of K-ras-transformed cells in vitro; type: cell-based; details: Mus musculus, NIH3T3, read-out: concentrations resulting in inhibition of growth and suppression of anchorage-independent growth
Description: Additionally, NIH3T3 murine fibroblast cells transformed with a mutated K-ras (codon 12 Gly-Val) were tested in vitro and in nude mice.

[13] = system: Human glomerular mesangial cells; experiment: Invention assay: HPLC of lipids (PA, DAG) extracted from IL-1-stimulated mesangial cells; type: cell-based
Description: The compounds of Formula I are shown to modulate the effects of primary stimuli which elevate levels of the relevant subspecies of PA and DAG using the assay system of the invention. In general for the assay, the cells to be tested are first incubated with the primary stimulating agent for various time periods and fixed in ice-cold methanol. The lipids are extracted using, for example, chloroform:methanol 2:1 (v/v), and the extracts are then subjected to HPLC as described by Bursten and Harris, Biochemistry (1991) . In this method, a Rainin mu-Porasil column is used with a 3:4 hexane:propanol organic carrier and a 1-10% water gradient during the first 10 minutes of separation. Detection of the peaks in the elution pattern is by absorption in the range of ultraviolet which detects isolated double bonds. Thus, the relevant peaks of unsaturated PA and DAG are shown in the elution pattern. It is important to note that the assay method permits discrimination between various forms of PA and DAG so that those relevant to the pathway affected by the compounds of Formula I can be measured directly. Confirmation of the nature of the acyl substituents of these components is accomplished using fast-atom bombardment mass spectroscopy. Thus, the relevant unsaturated (non-arachidonic) PA and DAG subspecies may be detected. The time periods employed are 5-60 seconds after stimulation with the primary stimulus, such as a cytokine. This technique permits assessment of the levels of various lipid components as a function of time. […]
The extracts were subjected to HPLC on a Rainin mu-Porasil column with a 3:4 hexane:propanol organic carrier and a 1-10% water gradient during the first 10 minutes of separation. The relative concentration of each lipid species is determined using absorption at 206 nm (A206), which follows unsaturated acyl content of lipid species. […] The absolute mass of each lipid species is determined by isolation of the lipid using a fraction collector, repurification on the HPLC column. […] Protein concentration is determined using the Bradford technique. […]

[14] = system: CD3-positive lymphocytes; experiment: Proliferation (thymidine uptake) of CD2-positive cells stimulated by anti-CD3 monoclonal antibody; type: cell-based
Description: In these experiments, freshly isolated, CD2-positive cells were stimulated by a solid-phase monoclonal antibody to acquire a CD3 phenotype, and then PTX was added. […] The block in proliferation could not be overcome by addition of either tumor necrosis factor (Figures 20 and 21) or IL-1 (Figure 21). […] The cytokines and PTX were added at culture inception and the cells were harvested after 5 days.

[15] = system: IL-6 transcripts in bone marrow stromal cells; experiment: Northern blot of IL-6 transcripts; type: cell-based; details: three-hour exposure, increasing concentrations
[16] = system: human leukemic cell line (Mo7e); experiment: GM-CSF-stimulated colony formation in semisolid medium; type: cell-based; details: colonies counted 10 days after culture initiation; Figure 14
Description: The human leukemic cell line (Mo7e) is dependent on added granulocyte-macrophage colony-stimulating factor (GM-CSF) for growth. Mo7e cells were cultured in semisolid medium with and without pentoxifylline (PTX) and rhGM-CSF. Colonies were counted 10 days after culture initiation under an inverted microscope. […] PTX thus prevents the up-regulation of activation-associated genes which inhibit proliferation.

[17] = system: SV40 T-antigen-transformed human kidney mesangial cells; experiment: Growth of transformed mesangial cells by tritiated thymidine uptake; type: cell-based
Description: SV40 T-antigen-transformed human kidney mesangial cells were cultured under standard conditions with rhIL-1 or with TNFα with and without pentoxifylline (PTX). Transformed mesangial cells grow independently of added growth factors, but IL-1 and TNFα are the normal proliferative signals for mesangial cells. As was shown in Example 1, when IL-1 is added to kidney mesangial cells, within 30 seconds LPAAT and PAPH are activated; the effect of both of these enzymes is inhibited by pentoxifylline at 1 mM. In this experiment, the growth of the treated cells was measured using tritiated thymidine uptake.

[18] = system: IL-8 encoding mRNA in U937 and THP1; experiment: Northern blot of IL-8 mRNA after lipopolysaccharide or GM-CSF induction; type: cell-based
Description: The murine fibrosarcoma cell line, L929, was also tested as an indicator for assays of TNF cytotoxicity. Cell growth was assayed by crystal violet staining using optical density as a measure of growth. […] Finally, two monocytic cell lines, U937 and THP1, were used to test the effect of pentoxifylline on the […] of the cytokine IL-8. The cell lines in culture were induced to upregulate IL-8 production by lipopolysaccharide or GM-CSF.

[19] = 33°C, 5 days, pentoxifylline 1 mM

SMILES: O=C(O)c1cn(C2CC2)c2cc(N3CCNCC3)c(F)cc2c1=O [Ciprofloxacin]
- Growth [1, 19]: ++
- Phenotype [1, 19]: ++
- inhibition of the transformed phenotype ([1]; pentoxifylline 1 mM, Ciprofloxacin 50 µg/ml): significant effect

SMILES: Cn1c(=O)n(CCCCC(C)(C)O)c(=O)c2[nH]cnc21 [HWA138]
- suppression of T cell proliferation [2]: minimal or no suppression

SMILES: CCOCn1cnc2c1c(=O)n(CCCCC(C)(C)O)c(=O)n2C [HWA448]
- suppression of T cell proliferation [2]: active

SMILES: CC(O)CCCCn1c(=O)c2c(ncn2C)n(C)c1=O (stereo not drawn) [M1, 1-(5-hydroxyhexyl) -3,7-dimethylxanthine]
- suppression of T cell proliferation [2]: active

SMILES: CC(O)C(O)CCCn1c(=O)c2c(ncn2C)n(C)c1=O (stereo not drawn) [M3, 1-(4,5-dihydroxyhexyl) -3,7-dimethylxanthine]
- suppression of T cell proliferation [2]: minimal or no suppression

SMILES: Cn1cnc2c1c(=O)n(CCCCC(=O)O)c(=O)n2C [M4, 1-(4-carboxybutyl)-3,7-dimethylxanthine]
- suppression of T cell proliferation [2]: minimal or no suppression

SMILES: Cn1cnc2c1c(=O)n(CCCC(=O)O)c(=O)n2C [M5, 1-(3-carboxypropyl)-3,7-dimethylxanthine]
- suppression of T cell proliferation [2]: minimal or no suppression

SMILES: CC(=O)CCCCn1c(=O)c2c(ncn2C)n(C)c1=O [Pentoxifylline]
- levels of Steel factor transcripts [3]: increases
- IL-2 receptor transcripts [4]: suppression
- expression of cell surface antigens on lymphocytes [5]: decreased
- proliferation of lymphocytes induced by anti-CD3 [2]: suppressed
- TNF transcripts [6]: suppression
- tumor weight ([7]; 100 mg/kg intraperitoneally once daily): 0.45 ± 0.2 g
- tumor weight ([7]; 100 mg/kg intraperitoneally twice daily): 0.2 ± 0.1 g
- TNF RNA obtained in response to LPS stimulation [8]: undetectable level
- inhibition of PAPH ([9]; 0.5 mM): inhibits
- dose range resulting in inhibition of phosphatidate phosphohydrolase ([9]; IL-1-stimulated HMC): greater than 500 µM
- dose range resulting in inhibition of lyso PA acyl transferase [10]: greater than 500 µM
- IL-2 transcripts [11]: but not of IL-2 transcripts
- minimal effective concentration [12]: ≥ 500 µM
- cyclical formation of PA, and conversion of PA to DAG ([13]; 100 µM pentoxifylline, 10^-11 M IL-1, 15- and 60-second points): no change
- conversion of PA to DAG ([13]; 500 µM pentoxifylline, 10^-11 M IL-1, 15 second time point): slight attenuation
- elevation of PA and DAG by IL-1 ([13]; 1 mM, all time points examined (15-60 seconds)): abolishes
- appearance of cells ([1]; 1 mM, 33°C, 5 days): predominantly non-transformed, fibroblastic appearance
- Growth [1, 19]: +++
- Phenotype [1, 19]: +++
- inhibition at 1000 µM ([1]; Mus musculus, NIH3T3, 120 h, 1 mM, 33°C, 5 days, read-out: overall number of cells diminished): ~50%
- Proliferation of CD3-positive lymphocytes ([14]; CD2-positive cells stimulated by solid-phase monoclonal antibody): strikingly inhibited
- thymidine uptake ([14]; antibody 64.1, harvested after 5 days, not reversed by IL-1 or TNF): diminished
- production of IL-6 transcripts [15]: increased
- GM-CSF-stimulated growth of colonies [16]: enhanced
- proliferative effect of TNF ([17]; TNFα, Figure 13B): enhances
- growth stimulated by IL-1 ([17]; rhIL-1, Figure 13A): arrested growth
- synthesis of IL-8 [18]: did not inhibit
